# Experiments:
# Test in all cases: relative viability (nuclei count vs DMSO), 5 days (fraction); higher = more cells survive
# AT9283 + Luminespib = compound: O=C(Nc1c[nH]nc1-c1nc2ccc(CN3CCOCC3)cc2[nH]1)NC1CC1 [AT9283] + CCNC(=O)c1noc(-c2cc(C(C)C)c(O)cc2O)c1-c1ccc(CN2CCOCC2)cc1 [Luminespib] (partner 0.01 µM)
# Summary of the method: (§1)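 Relative viability divides the nuclei count in treated wells by that in vehicle wells. Lung cancer cell lines were seeded in 1536-well plates, dosed by pin tool the next day, and fixed and stained after 5 days in one step with final 0.05% Triton X-100, 1% formaldehyde and 1 ug/ml Hoechst. Dosing was a single drug or a fixed anchor-drug dose plus five library-drug doses (not always all listed) in √10 steps, and values are medians of duplicate plates imaged at 4×.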
# AT9283 + Bortezomib = compound: O=C(Nc1c[nH]nc1-c1nc2ccc(CN3CCOCC3)cc2[nH]1)NC1CC1 [AT9283] + CC(C)C[C@H](NC(=O)[C@H](Cc1ccccc1)NC(=O)c1cnccn1)B(O)O [Bortezomib] (partner 0.002 µM)
# Summary of the method: as §1
# AT9283 + Foretinib = compound: O=C(Nc1c[nH]nc1-c1nc2ccc(CN3CCOCC3)cc2[nH]1)NC1CC1 [AT9283] + COc1cc2c(Oc3ccc(NC(=O)C4(C(=O)Nc5ccc(F)cc5)CC4)cc3F)ccnc2cc1OCCCN1CCOCC1 [Foretinib] (partner 0.25 µM)
# Summary of the method: as §1
# AT9283 + Dasatinib = compound: O=C(Nc1c[nH]nc1-c1nc2ccc(CN3CCOCC3)cc2[nH]1)NC1CC1 [AT9283] + Cc1nc(Nc2ncc(C(=O)Nc3c(C)cccc3Cl)s2)cc(N2CCN(CCO)CC2)n1 [Dasatinib] (partner 0.075 µM)
# Summary of the method: as §1
# Erlotinib + Bortezomib = compound: C#Cc1cccc(Nc2ncnc3cc(OCCOC)c(OCCOC)cc23)c1 [Erlotinib] + CC(C)C[C@H](NC(=O)[C@H](Cc1ccccc1)NC(=O)c1cnccn1)B(O)O [Bortezomib] (partner 0.002 µM)
# Summary of the method: as §1
Cell Line,relative viability (AT9283 + Luminespib; first compound 0.003 µM),relative viability (AT9283 + Luminespib; first compound 0.03 µM),relative viability (AT9283 + Luminespib; first compound 0.09487 µM),relative viability (AT9283 + Luminespib; first compound 0.3 µM),relative viability (AT9283 + Bortezomib; first compound 0.003 µM),relative viability (AT9283 + Bortezomib; first compound 0.03 µM),relative viability (AT9283 + Bortezomib; first compound 0.09487 µM),relative viability (AT9283 + Bortezomib; first compound 0.3 µM),relative viability (AT9283 + Foretinib; first compound 0.003 µM),relative viability (AT9283 + Foretinib; first compound 0.03 µM),relative viability (AT9283 + Foretinib; first compound 0.09487 µM),relative viability (AT9283 + Foretinib; first compound 0.3 µM),relative viability (AT9283 + Dasatinib; first compound 0.003 µM),relative viability (AT9283 + Dasatinib; first compound 0.03 µM),relative viability (AT9283 + Dasatinib; first compound 0.09487 µM),relative viability (AT9283 + Dasatinib; first compound 0.3 µM),relative viability (Erlotinib + Bortezomib; first compound 0.02 µM),relative viability (Erlotinib + Bortezomib; first compound 0.2 µM),relative viability (Erlotinib + Bortezomib; first compound 0.6325 µM),relative viability (Erlotinib + Bortezomib; first compound 2 µM)
NCI-H1563,0.5,0.527,0.443,0.45,0.859,0.79,0.822,0.703,0.906,0.765,0.708,0.633,0.444,0.444,0.42,0.327,0.905,0.787,0.75,0.754
NCI-H1650,0.21,0.182,0.219,0.231,0.206,0.222,0.231,0.215,1.2,0.985,0.46,0.327,0.347,0.301,0.216,0.171,0.204,0.204,0.176,0.178
NCI-H1651,0.725,0.826,0.773,0.623,0.914,0.897,0.902,0.618,0.837,0.779,0.638,0.396,0.442,0.368,0.319,0.212,0.912,0.909,0.918,0.882
NCI-H1666,1.03,0.726,0.557,0.499,0.806,0.442,0.297,0.298,1.01,0.725,0.534,0.496,0.866,0.682,0.574,0.431,0.864,0.74,0.766,0.615
NCI-H1734,0.221,0.145,0.165,0.18,0.904,0.349,0.296,0.223,0.904,0.309,0.334,0.246,0.332,0.301,0.187,0.158,1.1,0.955,1.17,0.961
NCI-H1755,0.607,0.446,0.553,0.407,0.983,0.91,0.498,0.529,0.871,0.755,0.559,0.496,0.451,0.437,0.265,0.272,1.06,1.01,0.957,0.9
NCI-H1915,0.729,0.751,0.187,0.213,0.769,0.952,0.887,0.341,1.04,0.995,0.451,0.256,0.276,0.289,0.141,0.141,0.982,0.989,1.05,0.992
NCI-H1975,0.198,0.243,0.215,0.132,0.388,0.264,0.173,0.179,0.947,0.949,0.82,0.326,0.401,0.461,0.389,0.237,0.381,0.355,0.451,0.303
NCI-H1993,0.977,0.521,0.523,0.45,1.31,0.997,0.576,0.504,0.82,0.603,0.61,0.534,0.618,0.557,0.462,0.448,1.01,0.698,0.809,0.739
NCI-H2009,1.04,0.978,0.736,0.325,1.01,0.639,0.363,0.233,1.29,1.07,0.438,0.29,0.308,0.212,0.124,0.099,1.06,1.03,1.19,1.01
NCI-H2023,0.954,0.742,0.361,0.11,1,0.918,0.174,0.123,0.739,0.86,0.301,0.108,0.526,0.42,0.182,0.101,0.949,0.816,1.14,0.789
NCI-H2085,0.585,0.477,0.403,0.341,1.03,0.937,0.984,0.485,1.1,0.736,0.51,0.338,0.231,0.238,0.224,0.2,1.04,0.979,0.889,0.766
NCI-H2087,0.163,0.17,0.15,0.139,0.753,0.626,0.447,0.23,1.03,0.388,0.195,0.132,0.765,0.309,0.122,0.0986,1,1.12,0.804,0.768
NCI-H2126,0.949,0.954,0.826,0.422,1.11,1.09,1.1,0.528,1.2,1.18,0.652,0.447,0.587,0.602,0.439,0.271,1.12,1.11,0.964,0.769
NCI-H2228,0.152,0.123,0.162,0.11,1.04,0.529,0.118,0.176,0.968,0.613,0.26,0.104,0.491,0.503,0.307,0.0747,1.06,1.03,1.02,0.8
